Results on 18 compounds are retold here after ChEMBL document CHEMBL4406887, “Design and synthesis of biaryloxazolidinone derivatives containing amide or acrylamide moiety as novel antibacterial agents against Gram-positive bacteria” (Bioorg Med Chem Lett, 2019).

Broadly, the MIC is the least concentration at which growth counts as inhibited. Read a low MIC as greater potency. What is called solubility is how much of the substance goes into solution per volume.

Data set [1] concerns Staphylococcus aureus. Nature of the data set: Antibacterial activity against Staphylococcus aureus ATCC 29213 CLSI-based double dilution method. The class given is functional.
The subject of data set [2] is Staphylococcus aureus. The data set can be described thus: Antibacterial activity against methicillin-resistant Staphylococcus aureus CLSI-based double dilution method. It counts as functional.
Data set [3] relates to Staphylococcus aureus. The data set can be described thus: Antibacterial activity against methicillin-sensitive Staphylococcus aureus CLSI-based double dilution method. The class given is functional.
The next data set concerns Enterococcus faecalis. The data set can be described thus: Antibacterial activity against linezolid-resistant Enterococcus faecalis CLSI-based double dilution method. The class given is functional.
A further data set relates to Enterococcus faecium. The data set can be described thus: Antibacterial activity against vancomycin-resistant Enterococcus faecium CLSI-based double dilution method. It counts as functional.
A short description of data set [4]: Stability in artificial gastric acid at 1 mg/ml assessed as residual rate measured immediately by HPLC analysis relative to control. The settings on record: read-out: Stability. It counts as ADME.
A short description of data set [5]: Stability in artificial gastric acid at 1 mg/ml assessed as residual rate after 30 mins by HPLC analysis relative to control. As to conditions: read-out: Stability. The class given is ADME.
Data set [6] can be described thus: Stability in artificial gastric acid at 1 mg/ml assessed as residual rate after 1 hr by HPLC analysis relative to control. It counts as ADME. As to conditions: read-out: Stability.
The nature of data set [7]: Stability in artificial gastric acid at 1 mg/ml assessed as residual rate after 1.5 hrs by HPLC analysis relative to control. The class given is ADME. As to conditions: read-out: Stability.
The nature of data set [8]: Stability in artificial gastric acid at 1 mg/ml assessed as residual rate after 2 hrs by HPLC analysis relative to control. It counts as ADME. As to conditions: read-out: Stability.
Data set [9] can be described thus: Stability in artificial gastric acid at 1 mg/ml assessed as residual rate after 2.5 hrs by HPLC analysis relative to control. It counts as ADME. The settings on record: read-out: Stability.
A short description of data set [10]: Stability in artificial gastric acid at 1 mg/ml assessed as residual rate after 3 hrs by HPLC analysis relative to control. It counts as ADME. As to conditions: read-out: Stability.
Data set [11] can be described thus: Stability in artificial gastric acid at 1 mg/ml assessed as residual rate after 3.5 hrs by HPLC analysis relative to control. It counts as ADME. The settings on record: read-out: Stability.
A short description of data set [12]: Stability in artificial gastric acid at 1 mg/ml assessed as residual rate after 4 hrs by HPLC analysis relative to control. The class given is ADME. The settings on record: read-out: Stability.
The nature of data set [13]: Aqueous solubility of compound. The class given is physicochemical. The settings on record: water.

≈ marks a conversion by molar mass, not a printed value.

Regarding `CC(=O)NC[C@H]1CN(c2ccc(-c3ccc(/C=N/N4CCN(C)CC4)cc3)c(F)c2)C(=O)O1`, the MIC with Staphylococcus aureus [1], against Staphylococcus aureus [2], with Staphylococcus aureus [3], in the data set on Enterococcus faecalis and against Enterococcus faecium was 0.0675 µg/mL (≈ 0.149 µM) in each case. The remaining at 0 h, 1 mg/ml in [4] amounted to 100%. For the same compound, the remaining at 0.5 h, 1 mg/ml in [5] amounted to 97.5%. For the same compound, in data set [6], the remaining at 1 h, 1 mg/ml came out at 40.7%. Also, the remaining at 1.5 h, 1 mg/ml in data set [7] was determined as 26.3%. Moreover, the remaining at 2 h, 1 mg/ml in data set [8] is 16.1%. In addition, the remaining at 2.5 h, 1 mg/ml in data set [9] amounted to 0%. The remaining at 3 h, 1 mg/ml in data set [10] came to 0%. The remaining at 3.5 h, 1 mg/ml in [11] came to 0%. Further, in data set [12], the remaining at 4 h, 1 mg/ml is 0%. In data set [13], this compound returned a solubility of 71 µg/mL (≈ 157 µM).

Take `CC(=O)NC[C@H]1CN(c2ccc(-c3ccc(/C=C/C(=O)N4CCNCC4)cc3)c(F)c2)C(=O)O1`: the MIC against Staphylococcus aureus [1] is 0.5 µg/mL (≈ 1.07 µM); against Staphylococcus aureus [2], 0.5 µg/mL (≈ 1.07 µM); in the data set with Staphylococcus aureus [3], 0.5 µg/mL (≈ 1.07 µM); against Enterococcus faecalis it was 0.25 µg/mL (≈ 0.536 µM); against Enterococcus faecium, 0.5 µg/mL (≈ 1.07 µM). Besides, the remaining at 0 h, 1 mg/ml in data set [4] came to 100%. Moreover, the remaining at 0.5 h, 1 mg/ml in data set [5] was found to be 94.9%. Further, the remaining at 1 h, 1 mg/ml in data set [6] came out at 95.2%. Moreover, in data set [7], the remaining at 1.5 h, 1 mg/ml amounted to 94.9%. For the same compound, the remaining at 2 h, 1 mg/ml in data set [8] was determined as 91.7%. Further, in data set [9], the remaining at 2.5 h, 1 mg/ml was found to be 91.5%. For the same compound, in [10], the remaining at 3 h, 1 mg/ml stood at 90.9%. In addition, the remaining at 3.5 h, 1 mg/ml in data set [11] is 89.7%. The remaining at 4 h, 1 mg/ml in data set [12] was determined as 88.7%. Also, the concentration in solution in data set [13] (solubility) came to 115 µg/mL (≈ 247 µM).

For `CC(=O)NC[C@H]1CN(c2ccc(-c3ccc(C(=O)N4CCSCC4)cc3)c(F)c2)C(=O)O1`, the MIC was determined as 1 µg/mL (≈ 2.19 µM) in the data set on Staphylococcus aureus [1]; 2 µg/mL (≈ 4.37 µM) against Staphylococcus aureus [2]; 2 µg/mL (≈ 4.37 µM) in the data set on Staphylococcus aureus [3]; 4 µg/mL (≈ 8.74 µM) in the data set on Enterococcus faecalis; 2 µg/mL (≈ 4.37 µM) in the data set with Enterococcus faecium.

For the compound `CC(=O)NC[C@H]1CN(c2ccc(-c3ccc(/C=C/C(=O)N4CCSCC4)cc3)c(F)c2)C(=O)O1`, the MIC against Staphylococcus aureus [1] is 1 µg/mL (≈ 2.07 µM); against Staphylococcus aureus [2], 2 µg/mL (≈ 4.14 µM); in the data set with Staphylococcus aureus [3] it was 1 µg/mL (≈ 2.07 µM); with Enterococcus faecalis, 2 µg/mL (≈ 4.14 µM); in the data set on Enterococcus faecium it was 2 µg/mL (≈ 4.14 µM).

In the case of `CC(=O)NC[C@H]1CN(c2ccc(-c3ccc(/C=C/C(=O)NC4CCCC4)cc3)c(F)c2)C(=O)O1`, the MIC in the data set on Staphylococcus aureus [1], with Staphylococcus aureus [2], in the data set with Staphylococcus aureus [3], against Enterococcus faecalis and against Enterococcus faecium was 1 µg/mL (≈ 2.15 µM) in each case.

Turning to `CC(=O)NC[C@H]1CN(c2ccc(-c3ccc(/C=C/C(=O)N4CCCCC4)cc3)c(F)c2)C(=O)O1`, the MIC with Staphylococcus aureus [1], against Staphylococcus aureus [2], in the data set with Staphylococcus aureus [3], against Enterococcus faecalis and against Enterococcus faecium was 1 µg/mL (≈ 2.15 µM) in each case.

On to `CC(=O)NC[C@H]1CN(c2ccc(-c3ccc(C(=O)N4CCNCC4)cc3)c(F)c2)C(=O)O1`, for which the MIC in the data set on Staphylococcus aureus [1], in the data set with Staphylococcus aureus [2], in the data set on Staphylococcus aureus [3], against Enterococcus faecalis and with Enterococcus faecium was 1 µg/mL (≈ 2.27 µM) in each case.

`CC(=O)NC[C@H]1CN(c2ccc(-c3ccc(C(=O)N4CCCCC4)cc3)c(F)c2)C(=O)O1`: the minimum inhibitory concentration (MIC) in the data set with Staphylococcus aureus [1], in the data set on Staphylococcus aureus [2], with Staphylococcus aureus [3], in the data set on Enterococcus faecalis and with Enterococcus faecium was 1 µg/mL (≈ 2.28 µM) each time.

Consider `CC(=O)NC[C@H]1CN(c2ccc(-c3ccc(/C=C/C(=O)N4CCCC4)cc3)c(F)c2)C(=O)O1`, for which the MIC in the data set on Staphylococcus aureus [1], in the data set on Staphylococcus aureus [2], with Staphylococcus aureus [3], against Enterococcus faecalis and in the data set with Enterococcus faecium was 1 µg/mL (≈ 2.21 µM) throughout.

For `CC(=O)NC[C@H]1CN(c2ccc(-c3ccc(/C=C/C(=O)N4CCC(C)CC4)cc3)c(F)c2)C(=O)O1`, the MIC against Staphylococcus aureus [1], with Staphylococcus aureus [2], in the data set with Staphylococcus aureus [3], in the data set with Enterococcus faecalis and with Enterococcus faecium was 1 µg/mL (≈ 2.09 µM) throughout.

Take `CC(=O)NC[C@H]1CN(c2ccc(-c3ccc(C(=O)NC4CC4)cc3)c(F)c2)C(=O)O1`: the MIC with Staphylococcus aureus [1], in the data set with Staphylococcus aureus [2], in the data set with Staphylococcus aureus [3], against Enterococcus faecalis and against Enterococcus faecium was 1 µg/mL (≈ 2.43 µM) throughout.

For the compound `CC(=O)NC[C@H]1CN(c2ccc(-c3ccc(C(=O)N4CCOCC4)cc3)c(F)c2)C(=O)O1`, the MIC in the data set with Staphylococcus aureus [1], in the data set with Staphylococcus aureus [2], in the data set on Staphylococcus aureus [3], against Enterococcus faecalis and in the data set on Enterococcus faecium was 2 µg/mL (≈ 4.53 µM) each time.

`CC(=O)NC[C@H]1CN(c2ccc(-c3ccc(/C=C/C(=O)N4CCOCC4)cc3)c(F)c2)C(=O)O1`: the MIC against Staphylococcus aureus [1] turned out to be 2 µg/mL (≈ 4.28 µM); with Staphylococcus aureus [2], 2 µg/mL (≈ 4.28 µM); in the data set with Staphylococcus aureus [3], 2 µg/mL (≈ 4.28 µM); against Enterococcus faecalis, 4 µg/mL (≈ 8.56 µM); in the data set with Enterococcus faecium, 2 µg/mL (≈ 4.28 µM).

With `CC(=O)NC[C@H]1CN(c2ccc(-c3ccc(C(=O)N4CCCC4)cc3)c(F)c2)C(=O)O1`, the MIC against Staphylococcus aureus [1] amounted to 1 µg/mL (≈ 2.35 µM); against Staphylococcus aureus [2], 1 µg/mL (≈ 2.35 µM); with Staphylococcus aureus [3], 1 µg/mL (≈ 2.35 µM); against Enterococcus faecalis it was 2 µg/mL (≈ 4.7 µM); against Enterococcus faecium, 2 µg/mL (≈ 4.7 µM).

As for `CC(=O)NC[C@H]1CN(c2ccc(-c3ccc(/C=C/C(=O)NC4CC4)cc3)c(F)c2)C(=O)O1`, the MIC against Staphylococcus aureus [1], against Staphylococcus aureus [2], against Staphylococcus aureus [3], in the data set with Enterococcus faecalis and in the data set on Enterococcus faecium was 1 µg/mL (≈ 2.29 µM) in each case.

Take `CC(=O)NC[C@H]1CN(c2ccc(-c3ccc(C(=O)NC4CCCC4)cc3)c(F)c2)C(=O)O1`: the MIC with Staphylococcus aureus [1], against Staphylococcus aureus [2], in the data set on Staphylococcus aureus [3], against Enterococcus faecalis and with Enterococcus faecium was 1 µg/mL (≈ 2.28 µM) each time.

For `CC(=O)NC[C@H]1CN(c2ccc(N3CCOCC3)c(F)c2)C(=O)O1` [LINEZOLID], the MIC was 1 µg/mL (≈ 2.96 µM) against Staphylococcus aureus [1]; 1 µg/mL (≈ 2.96 µM) against Staphylococcus aureus [2]; 1 µg/mL (≈ 2.96 µM) in the data set on Staphylococcus aureus [3]; over 16 µg/mL in the data set with Enterococcus faecalis; 2 µg/mL (≈ 5.93 µM) in the data set with Enterococcus faecium.

For the compound `CC(=O)NC[C@H]1CN(c2ccc(-c3ccc(CNCc4cnn[nH]4)cc3)c(F)c2)C(=O)O1` [RADEZOLID], the MIC against Staphylococcus aureus [1], against Staphylococcus aureus [2], in the data set on Staphylococcus aureus [3], in the data set on Enterococcus faecalis and against Enterococcus faecium was 0.5 µg/mL (≈ 1.14 µM) in each case.
